# Earlier results in PMC8018465, “Antimicrobial activities of a small molecule compound II-6s against oral streptococci” (Journal of Oral Microbiology, 2021).
# Test system: methicillin-resistant Staphylococcus aureus (MRSA)
# Design: method as in PMID 30940910
# Conditions: cited from earlier work
compound,measurement,value
"CC(C)(Cc1ccc2ccccc2c1)NC[C@@H](O)COc1cccc(Cl)c1C#N [NPS-2143, reference compound]",antimicrobial activity against MRSA,bacteriostatic activity
